Values of other authors, collected in US20160199396A1 (TEVA Pharmaceutical Industries Ltd., priority 2013, published 2016).

Details: background statement

- BCS (biopharmaceutical classification system) class: class IV
Structure (SMILES): CC(C)c1nc(CN(C)C(=O)N[C@H](C(=O)N[C@@H](Cc2ccccc2)C[C@H](O)[C@H](Cc2ccccc2)NC(=O)OCc2cncs2)C(C)C)cs1 [Ritonavir, 1,3-thiazol-5-ylmethyl N-[(2S,3S,5S)-3-hydroxy-5-[(2S)-3-methyl-2-{[methyl({[2-(propan-2-yl)-1,3-thiazol-4-yl]methyl})carbamoyl]amino}butanamido]-1,6-diphenylhexan-2-yl]carbamate]
